# Where a name gives a salt, the structure may show the parent alone. Read-outs that look alike come from different tables or passages of the source.
# Tests used:
# purified tubulin = biological target: T1, purified tubulin (Sus scrofa, UniProt P02550+P02554); test: Tubulin polymerisation assay (CytoDYNAMIX Screen kit, absorbance at 340 nm); type: biochemical; conditions: for inhibition at 5 µM: 5 μM compound, 4 mg/ml tubulin, read-out: % Inhibition of tubulin polymerization at 5 μM; for IC50: tubulin polymerization
# T1 construct: purchased Cytoskeleton #BK006P
# T1 sequence (P02554 whole entry): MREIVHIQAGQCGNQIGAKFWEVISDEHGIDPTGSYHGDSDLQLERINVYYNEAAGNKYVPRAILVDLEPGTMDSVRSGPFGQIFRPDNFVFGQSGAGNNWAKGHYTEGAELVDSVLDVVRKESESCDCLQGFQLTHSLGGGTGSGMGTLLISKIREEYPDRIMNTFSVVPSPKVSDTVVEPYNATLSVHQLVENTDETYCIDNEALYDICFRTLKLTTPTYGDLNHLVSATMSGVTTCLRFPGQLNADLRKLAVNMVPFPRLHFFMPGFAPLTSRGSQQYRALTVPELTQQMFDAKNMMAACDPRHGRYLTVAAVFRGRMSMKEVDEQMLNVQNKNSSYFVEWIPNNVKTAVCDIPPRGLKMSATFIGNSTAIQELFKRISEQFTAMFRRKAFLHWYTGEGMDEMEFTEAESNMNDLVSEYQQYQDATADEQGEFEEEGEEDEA
# T1 sequence (P02550 whole entry): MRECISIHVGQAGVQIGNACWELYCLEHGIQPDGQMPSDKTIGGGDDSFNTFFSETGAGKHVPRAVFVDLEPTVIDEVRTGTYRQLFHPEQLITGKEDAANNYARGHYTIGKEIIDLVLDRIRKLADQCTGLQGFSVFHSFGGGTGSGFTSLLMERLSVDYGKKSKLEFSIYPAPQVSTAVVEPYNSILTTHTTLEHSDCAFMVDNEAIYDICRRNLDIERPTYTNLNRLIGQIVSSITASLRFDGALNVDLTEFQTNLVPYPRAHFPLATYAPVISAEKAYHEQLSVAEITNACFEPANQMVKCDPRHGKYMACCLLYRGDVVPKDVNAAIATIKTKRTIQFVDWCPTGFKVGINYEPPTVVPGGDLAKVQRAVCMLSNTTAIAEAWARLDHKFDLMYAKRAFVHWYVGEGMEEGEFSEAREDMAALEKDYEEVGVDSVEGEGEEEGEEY
# Experimental: The polymerization of purified tubulin was monitored spectrophotometrically by the change in absorbance at 340 nm using the CytoDYNAMIX Screen kit (#BK006P, Cytoskeleton) according to the instructions of the manufacturer. […] The absorbance was measured at 1 minute intervals for 60 minutes. The test compound was added to a 4 mg/ml tubulin solution containing 10% glycerol and 1 mM GTP in Buffer 1 (Buffer 1: 80 mM PIPES; 2 mM MgCl2; 0.5 mM EGTA, pH 6.9). Increased absorbance indicates increase in microtubule formation from tubulin heterodimers.
# K562 cell line = test: MTT assay: cytotoxicity against the K562 cell line; type: cell-based; conditions: Homo sapiens, K562 cells, 72 h, growth inhibition
# Experimental: Assessment of Cell Viability via MTT Assay: Cytotoxicity of compounds against the K562 cell line was assessed using the [3-(4,5-dimethylthiazol-2-yl)-2,5-diphenyl tetrazolium bromide] (MTT) assay. Fifteen thousand tumor cells were seeded into wells of flat-bottomed 96-well plates. An amount of 2 μL of a dilution series of each compound dissolved in DMSO was added to 198 μL of appropriate growth medium at three replicates per concentration and the plates were incubated in a 5% CO2 incubator at 37° C. After 72 h, the number of metabolically active cells was determined by MTT assay. Absorbance of each well was measured at 550 nm on a Tecan Sunrise reader. Dose-response curves for growth inhibition were generated as a percentage of untreated control. IC50 was determined by nonlinear regression (Prism, Graph Pad Software, Inc.).
# [1] = system: Endothelial cells (HUVEC); test: Neovessels formation inhibition (capillary tube formation on Matrigel); type: cell-based; conditions: Homo sapiens
# Experimental: The capability of compounds to inhibit the formation of capillaries was evaluated in vitro. Twenty thousand Endothelial cells (HUVEC) were placed on a Matrigel matrix and allowed to form capillary tubes in the presence or absence of the compounds overnight. The cells were stained with calcein AM, and the effect of the compounds on capillary tube formation was assessed using an inverted fluorescent microscope (Nikon). The reference compound used in this assay AVE-8063 is 3-amino-deoxycombretastatin A-4.
# HUVEC = test: Pre-established vessels disruption (capillary tubes on Matrigel); type: cell-based; conditions: Homo sapiens, HUVEC tubes formed 5 hours, then compounds overnight
# Experimental: To explore the effect of the compounds on pre-established vasculature, twenty thousand cells (HUVEC) were seeded and incubated over Matrigel for 5 hours to allow the capillary tubes to form. Then, compounds were added and incubated overnight. The disappearance of existing vasculature was monitored with fluorescent microscopy.
# [2] = HUVEC on Matrigel, compounds overnight, read-out: Neovessels Formation Inhibition Number of Branch Junctions IC50
# [3] = HUVEC on Matrigel, compounds overnight, read-out: Neovessels Formation Inhibition Total Tubule Length IC50
# [4] = read-out: Pre-established Vessels Disruption Number of Branch Junctions IC50
# [5] = read-out: Pre-established Vessels Disruption Total Tubule Length IC50
inhibition at 5 µM (purified tubulin) [%],IC50 (purified tubulin) [nM],SMILES,IC50 (K562 cell line) [nM],"IC50 [1, 2] [nM]","IC50 [1, 3] [nM]",IC50 (HUVEC; [4]) [nM],IC50 (HUVEC; [5]) [nM],"IC50 ([1]; HUVEC, read-out: Neovessels Formation Inhibition Number of Branch Junctions IC50 (nM)) [nM]","IC50 ([1]; HUVEC, read-out: Neovessels Formation Inhibition Total Tubule Length IC50 (nM)) [nM]"
61.4,990,"CCOc1ccc2c(Cc3cc(OC)c(OCC)c(OC)c3)cncc2c1N [Compound 18, 4-(4-Ethoxy-3,5-dimethoxybenzyl)-7-ethoxyisoquinolin-8-amine dihydrochloride]",13.2,13,18.7,17.8,32.1,,
,,"CC(=O)O[C@H]1C(=O)[C@@]2(C)[C@H]([C@H](OC(=O)c3ccccc3)[C@]3(O)C[C@H](OC(=O)[C@H](O)[C@@H](NC(=O)c4ccccc4)c4ccccc4)C(C)=C1C3(C)C)[C@]1(OC(C)=O)CO[C@@H]1C[C@@H]2O [Taxol, reference compound]",6.9,0.79,7.16,,,,
44.5,,"COc1ccc2c(C(=O)c3cc(OC)c(OC)c(OC)c3)cncc2c1 [Compound 28, (7-Methoxyisoquinolin-4-yl)(3,4,5-trimethoxyphenyl)methanone hydrochloride]",42.1,,,,,,
,,"CCOc1ccc2c(C(=O)c3cc(OC)c(OC)c(OC)c3)cncc2c1NC(=O)CN [Compound 112, 2-Amino-N-(7-ethoxy-4-(3,4,5-trimethoxybenzoyl)isoquinolin-8-yl)acetamide]",7.9,16.4,31.3,68.5,62.8,,
,,"CCOc1ccc2c(C(=O)c3cc(OC)c(OCC(C)C)c(OC)c3)cncc2c1OC(C)=O [Compound 78, 7-Ethoxy-4-(4-isobutoxy-3,5-dimethoxybenzoyl)isoquinolin-8-yl acetate]",7.02,,8.07,11.1,19.4,,
13,,"CCCOc1c(OC)cc(C(=O)c2cncc3c(OC(C)=O)c(OCC)ccc23)cc1OC [Compound 65, 4-(3,5-Dimethoxy-4-propoxybenzoyl)-7-ethoxyisoquinolin-8-yl acetate]",3.81,2.88,4.23,3.36,9.92,,
35,,"CCOc1ccc2c(C(=O)c3cc(OC)c(OC)c(OC)c3)cncc2c1NS(N)(=O)=O [Compound 105, N-(7-Ethoxy-4-(3,4,5-trimethoxybenzoyl)isoquinolin-8-yl)sulfamide hydrochloride]",4.18,5.71,8.06,9.27,9.3,,
58.8,1130,"CCOc1ccc2c(C(=O)c3cc(OC)c(OC)c(OC)c3)cncc2c1 [Compound 40, (7-Ethoxyisoquinolin-4-yl)(3,4,5-trimethoxyphenyl)methanone hydrochloride]",19.6,8.2,12.9,32.8,53.4,,
71.3,880,"CCOc1ccc2c(C(=O)c3cc(OC)c(OC)c(OC)c3)cncc2c1N [Compound 29, (8-Amino-7-ethoxyisoquinolin-4-yl)(3,4,5-trimethoxyphenyl)methanone hydrochloride]",1.64,1.04,1.47,1.78,2.26,,
65.8,1090,"CCOc1ccc2c(Cc3cc(OC)c(OC)c(OC)c3)cncc2c1OS(N)(=O)=O [Compound 21, 4-(3,4,5-Trimethoxybenzyl)-7-ethoxyisoquinolin-8-yl sulfamate hydrochloride]",36.9,47.3,52.8,26.7,60.5,,
,,"CCCOc1c(OC)cc(C(=O)c2cncc3c(N)c(OCC)ccc23)cc1OC [Compound 66, (8-Amino-7-ethoxyisoquinolin-4-yl)(3,5-dimethoxy-4-propoxyphenyl)methanone hydrochloride]",4.27,2.23,3.58,3.76,5.47,,
21,,"CCOc1ccc2c(Cc3cc(OC)c(OCC(F)(F)F)c(OC)c3)cncc2c1O [Compound 30, 4-(3,5-Dimethoxy-4-(2,2,2-trifluoroethoxy)benzyl)-7-ethoxyisoquinolin-8-ol hydrochloride]",63.8,,,,,,
59,1310,"CCOc1ccc2c(Cc3cc(OC)c(OCCC(C)C)c(OC)c3)cncc2c1O [Compound 33, 7-Ethoxy-4-(4-(isopentyloxy)-3,5-dimethoxybenzyl)isoquinolin-8-ol hydrochloride]",160,,,,,,
69,970,"CCOc1cc(Cc2cncc3c(O)c(OCC)ccc23)cc(OC)c1OC [Compound 15, 4-(3-Ethoxy-4,5-dimethoxybenzyl)-7-ethoxyisoquinolin-8-ol hydrochloride]",105,,,,,,
,,"CCOc1ccc2c(Cc3cc(OC)c(CC)c(OC)c3)cncc2c1O [Compound 73, 7-Ethoxy-4-(4-ethyl-3,5-dimethoxybenzyl)isoquinolin-8-ol hydrochloride]",335,,,,,,
,,"CCCCCOc1c(OC)cc(Cc2cncc3c(O)c(OCC)ccc23)cc1OC [Compound 63, 4-(3,5-Dimethoxy-4-(pentyloxy)benzyl)-7-ethoxyisoquinolin-8-ol hydrochloride]",213,,,,,,
,,"CCOc1ccc2c(Cc3cc(OC)c(OC)c([N+](=O)[O-])c3)cncc2c1O [Compound 103, 4-(3,4-Dimethoxy-5-nitrobenzyl)-7-ethoxyisoquinolin-8-ol hydrochloride]",138,,,,,,
,,"CCOc1ccc2c(Cc3cc(OC)c(OC)c(OC)c3)cncc2c1NC [Compound 92, 7-Ethoxy-N-methyl-4-(3,4,5-trimethoxybenzyl)isoquinolin-8-amine dihydrochloride]",943,,,,,,
,1050,"CCOc1ccc2c(Cc3cc(OC)c(OCC)c(OC)c3)cncc2c1O [Compound 14, 4-(4-Ethoxy-3,5-dimethoxybenzyl)-7-ethoxyisoquinolin-8-ol hydrochloride]",30.3,31.1,39.5,,,,
,,"COc1ccc(N(C)c2nc(C)nc3ccccc23)cc1 [Azixa, reference compound]",2.15,,,3.75,6.01,1.38,2.16
,,"CCOc1ccc2c(Cc3cc(Br)c(OC)c(OC)c3)cncc2c1O [Compound 71, 4-(3-Bromo-4,5-dimethoxybenzyl)-7-ethoxyisoquinolin-8-ol hydrochloride]",26,,,,,,
,,"CCOc1ccc2c(Cc3cc(OC)c(OCC)c(OC)c3)cncc2c1OC [Compound 46, 7-Ethoxy-4-(4-ethoxy-3,5-dimethoxybenzyl)-8-methoxyisoquinoline hydrochloride]",688,,,,,,
,,"CCOc1ccc2c(Cc3cc(OC)c(OC)c(OC)c3)cncc2c1NS(N)(=O)=O [Compound 8, 7-Ethoxy-4-(3,4,5-trimethoxy-benzyl)isoquinolin-8-yl]-sulfamide hydrochloride]",53.4,100,138,,,,
,,"O=C(Nc1ccncc1)C(=O)c1cn(Cc2ccc(Cl)cc2)c2ccccc12 [Indibulin, reference compound]",197,,,,,,

SMILES,inhibition at 5 µM (purified tubulin) [%],IC50 (purified tubulin) [nM],IC50 (K562 cell line) [nM],"IC50 [1, 2] [nM]","IC50 [1, 3] [nM]",IC50 (HUVEC; [4]) [nM],IC50 (HUVEC; [5]) [nM],"IC50 ([1]; HUVEC, read-out: Neovessels Formation Inhibition Number of Branch Junctions IC50 (nM)) [nM]","IC50 ([1]; HUVEC, read-out: Neovessels Formation Inhibition Total Tubule Length IC50 (nM)) [nM]"
"CCOc1ccc2c(Cc3cc(OC)c(OCC(C)C)c(OC)c3)cncc2c1N [Compound 31, 4-(4-Isobutoxy-3,5-dimethoxybenzyl)-7-ethoxyisoquinolin-8-amine dihydrochloride]",55.4,1540,37,,,,,,
"COc1ccc(/C=C\c2cc(OC)c(OC)c(OC)c2)cc1O [Combretastatin, reference compound]",68.9,,2.07,,,,,,
"CCCCOc1c(OC)cc(Cc2cncc3c(O)c(OCC)ccc23)cc1OC [Compound 38, 4-(4-Butoxy-3,5-dimethoxybenzyl)-7-ethoxyisoquinolin-8-ol hydrochloride]",67.4,1110,30.4,,,,,,

# Source: patent publication US20130131018A1, “SUBSTITUTED ISOQUINOLINES AND THEIR USE AS TUBULIN POLYMERIZATION INHIBITORS” (Exonhit S.A., priority 2010, published 2013)
